# Reference: US9833497B2, “Human originated EGF domain proteins and use of the same” (CHENGDU SOURCEBIO LIMITED-LIABILITY COMPANY, priority 2013, dated 2017)
# What was measured:
# Type in all cases: cell-based
# E. coli DH5α = assay: Antibacterial activity: MIC and growth curve against E. coli DH5α in 96-well plate; conditions: minimal inhibitory concentration against E. coli DH5α; 96-well plate, 5×10^5 CFU/mL, 37° C., judged after 8 h
# How it was run: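 Log-phase DH5α (OD600 about 0.5, 37° C, 185 rpm in LB) was pelleted, resuspended in fresh LB and seeded at 5×10^5 CFU/mL with recombinant protein at 50, 25 and 12.5 μg/mL (two-fold series), in triplicate. Plates were shaken at 175 rpm, 37° C, and OD600 was read every 30 min. MIC was the lowest concentration with no growth.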
# E. coli BL21 = assay: MIC against Gram-negative bacteria: E. coli BL21; conditions: 5×10^5 CFU/mL; for MIC E. coli BL21: two-fold serial dilution
# How it was run: (§1)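 Inocula prepared by growing LB cultures at 37° C to 0.5 McFarland, centrifuging at 4000×g, and resuspending in fresh medium. Final density 5×10^5 CFU/mL per well with two-fold dilutions of purified EGF domain protein; shaking incubation at 37° C.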
# Pseudomonas aeruginosa = assay: MIC against Gram-negative bacteria: Pseudomonas aeruginosa; conditions: 5×10^5 CFU/mL; for MIC P. aeruginosa: two-fold serial dilution
# How it was run: as §1
# Klebsiella pneumonia = assay: MIC against Gram-negative bacteria: Klebsiella pneumonia; conditions: 5×10^5 CFU/mL; for MIC K. pneumonia: two-fold serial dilution
# How it was run: as §1
# Enterobacter cloacae = assay: MIC against Gram-negative bacteria: Enterobacter cloacae; conditions: 5×10^5 CFU/mL; for MIC E. cloacae: two-fold serial dilution
# How it was run: as §1
# Aeromonas hydrophila = assay: MIC against Gram-negative bacteria: Aeromonas hydrophila; conditions: 5×10^5 CFU/mL; for MIC A. hydrophila: two-fold serial dilution
# How it was run: as §1
# Citrobacter diversus = assay: MIC against Gram-negative bacteria: Citrobacter diversus; conditions: 5×10^5 CFU/mL; for MIC C. diversus: two-fold serial dilution
# How it was run: as §1
# Moraxella catarrhalis = assay: MIC against Gram-negative bacteria: Moraxella catarrhalis; conditions: 5×10^5 CFU/mL; for MIC M. catarrhalis: two-fold serial dilution
# How it was run: as §1
# Proteus mirabilis = assay: MIC against Gram-negative bacteria: Proteus mirabilis; conditions: 5×10^5 CFU/mL; for MIC P. mirabilis: two-fold serial dilution
# How it was run: as §1
# Proteus vulgaris = assay: MIC against Gram-negative bacteria: Proteus vulgaris; conditions: 5×10^5 CFU/mL; for MIC P. vulgaris: two-fold serial dilution
# How it was run: as §1
# Serratia marcescens = assay: MIC against Gram-negative bacteria: Serratia marcescens; conditions: 5×10^5 CFU/mL; for MIC S. marcescens: two-fold serial dilution
# How it was run: as §1
# [1] = E. coli BL21, 96-well plate, 37° C., 10 h
# [2] = Pseudomonas aeruginosa, 96-well plate, 37° C., 10 h
# [3] = Klebsiella pneumonia, 96-well plate, 37° C., 10 h
# [4] = Enterobacter cloacae, 96-well plate, 37° C., 10 h
# [5] = Aeromonas hydrophila, 96-well plate, 37° C., 10 h
# [6] = Citrobacter diversus, 96-well plate, 37° C., 10 h
# [7] = Moraxella catarrhalis, 96-well plate, 37° C., 10 h
# [8] = Proteus mirabilis, 96-well plate, 37° C., 10 h
# [9] = Proteus vulgaris, 96-well plate, 37° C., 10 h
# [10] = Serratia marcescens, 96-well plate, 37° C., 10 h
substance,measurement,setting,value
PRT1123 (QLTGCQGHTCPLAATCIPIFESGVHSYVCHCPPGTHGPFCG; listed as Homo sapiens),MIC,E. coli DH5α,25 µg/mL
same,MIC E. coli BL21,E. coli BL21; 10 h cultivation at 37° C.,50 µg/mL
same,MIC P. aeruginosa,Pseudomonas aeruginosa; 10 h cultivation at 37° C.,25 µg/mL
same,MIC K. pneumonia,Klebsiella pneumonia; 10 h cultivation at 37° C.,12.5 µg/mL
same,MIC E. cloacae,Enterobacter cloacae; 10 h cultivation at 37° C.,25 µg/mL
same,MIC A. hydrophila,Aeromonas hydrophila; 10 h cultivation at 37° C.,50 µg/mL
same,MIC C. diversus,Citrobacter diversus; 10 h cultivation at 37° C.,12.5 µg/mL
same,MIC M. catarrhalis,Moraxella catarrhalis; 10 h cultivation at 37° C.,25 µg/mL
same,MIC P. mirabilis,Proteus mirabilis; 10 h cultivation at 37° C.,50 µg/mL
same,MIC P. vulgaris,Proteus vulgaris; 10 h cultivation at 37° C.,25 µg/mL
same,MIC S. marcescens,Serratia marcescens; 10 h cultivation at 37° C.,12.5 µg/mL
PRT873 (CECYGHSNRCSYIDFLNVVTCVSCKHNTRGQHCQHCRLGYYRNGSAELDDENVCIE; listed as Homo sapiens),MIC,E. coli DH5α,12.5 µg/mL
same,MIC (μg/mL) E. coli BL21,"E. coli BL21; E. coli BL21, 10 h cultivation at 37° C.",50 µg/mL
same,MIC (μg/mL) P. aeruginosa,"Pseudomonas aeruginosa; P. aeruginosa, 10 h cultivation at 37° C.",12.5 µg/mL
same,MIC (μg/mL) K. pneumonia,"Klebsiella pneumonia; K. pneumonia, 10 h cultivation at 37° C.",25 µg/mL
same,MIC (μg/mL) E. cloacae,"Enterobacter cloacae; E. cloacae, 10 h cultivation at 37° C.",25 µg/mL
same,MIC (μg/mL) A. hydrophila,"Aeromonas hydrophila; A. hydrophila, 10 h cultivation at 37° C.",50 µg/mL
same,MIC (μg/mL) C. diversus,"Citrobacter diversus; C. diversus, 10 h cultivation at 37° C.",25 µg/mL
same,MIC (μg/mL) M. catarrhalis,"Moraxella catarrhalis; M. catarrhalis, 10 h cultivation at 37° C.",12.5 µg/mL
same,MIC (μg/mL) P. mirabilis,"Proteus mirabilis; P. mirabilis, 10 h cultivation at 37° C.",25 µg/mL
same,MIC (μg/mL) P. vulgaris,"Proteus vulgaris; P. vulgaris, 10 h cultivation at 37° C.",50 µg/mL
same,MIC (μg/mL) S. marcescens,"Serratia marcescens; S. marcescens, 10 h cultivation at 37° C.",12.5 µg/mL
PRT1083 (GTNVCAVANGGCQQLCLYRGRGQRACACAHGMLAEDGASCR; listed as Homo sapiens),MIC,E. coli DH5α,50 µg/mL
same,MIC E. coli BL21,E. coli BL21; 10 h cultivation at 37° C.,12.5 µg/mL
same,MIC P. aeruginosa,Pseudomonas aeruginosa; 10 h cultivation at 37° C.,50 µg/mL
same,MIC K. pneumonia,Klebsiella pneumonia; 10 h cultivation at 37° C.,50 µg/mL
same,MIC E. cloacae,Enterobacter cloacae; 10 h cultivation at 37° C.,50 µg/mL
same,MIC A. hydrophila,Aeromonas hydrophila; 10 h cultivation at 37° C.,25 µg/mL
same,MIC C. diversus,Citrobacter diversus; 10 h cultivation at 37° C.,12.5 µg/mL
same,MIC M. catarrhalis,Moraxella catarrhalis; 10 h cultivation at 37° C.,50 µg/mL
same,MIC P. mirabilis,Proteus mirabilis; 10 h cultivation at 37° C.,25 µg/mL
same,MIC P. vulgaris,Proteus vulgaris; 10 h cultivation at 37° C.,50 µg/mL
same,MIC S. marcescens,Serratia marcescens; 10 h cultivation at 37° C.,25 µg/mL
PRT1295 (RTSPCDNFDCQNGAQCIVRINEPICQCLPGYQGEKCE; listed as Homo sapiens),MIC,E. coli DH5α,12.5 µg/mL
same,MIC against E. coli BL21,E. coli BL21; [1],50 µg/mL
same,MIC against P. aeruginosa,Pseudomonas aeruginosa; [2],12.5 µg/mL
same,MIC against K. pneumonia,Klebsiella pneumonia; [3],50 µg/mL
same,MIC against E. cloacae,Enterobacter cloacae; [4],12.5 µg/mL
same,MIC against A. hydrophila,Aeromonas hydrophila; [5],50 µg/mL
same,MIC against C. diversus,Citrobacter diversus; [6],12.5 µg/mL
same,MIC against M. catarrhalis,Moraxella catarrhalis; [7],50 µg/mL
same,MIC against P. mirabilis,Proteus mirabilis; [8],12.5 µg/mL
same,MIC against P. vulgaris,Proteus vulgaris; [9],50 µg/mL
same,MIC against S. marcescens,Serratia marcescens; [10],12.5 µg/mL
PRT29 (PCNCDVHKGFDPNCNKTNGQCHCKEFHYRPRGSDSCLP; listed as Homo sapiens),MIC,E. coli DH5α,25 µg/mL
same,MIC (μg/mL) E. coli BL21,E. coli BL21; [1],25 µg/mL
same,MIC (μg/mL) P. aeruginosa,Pseudomonas aeruginosa; [2],12.5 µg/mL
same,MIC (μg/mL) K. pneumonia,Klebsiella pneumonia; [3],25 µg/mL
same,MIC (μg/mL) E. cloacae,Enterobacter cloacae; [4],50 µg/mL
same,MIC (μg/mL) A. hydrophila,Aeromonas hydrophila; [5],25 µg/mL
same,MIC (μg/mL) C. diversus,Citrobacter diversus; [6],25 µg/mL
same,MIC (μg/mL) M. catarrhalis,Moraxella catarrhalis; [7],12.5 µg/mL
same,MIC (μg/mL) P. mirabilis,Proteus mirabilis; [8],25 µg/mL
same,MIC (μg/mL) P. vulgaris,Proteus vulgaris; [9],50 µg/mL
same,MIC (μg/mL) S. marcescens,Serratia marcescens; [10],12.5 µg/mL
